# Test results: patent US20230255952A1, “METHODS FOR TREATING CHRONIC OBSTRUCTIVE PULMONARY DISEASE” (THERAVANCE BIOPHARMA R&D IP, LLC, priority 2018, published 2023)
# “Also recorded” adds a separate entry of the source.
# System: subjects with chronic obstructive pulmonary disease and a low peak inspiratory flow rate
# Experiment: 28-day randomized, double-blind, double-dummy, parallel-group clinical study: once-daily revefenacin by nebulizer vs once-daily tiotropium by dry powder inhaler, lung function
# Type: in vivo, human
# Conditions: for Trough FEV1, LS Difference (SE), REV vs TIO / Trough FVC, LS Difference (SE), REV vs TIO / Trough IC, LS Difference (SE), REV vs TIO: REV 175 μg nebulizer vs TIO 18 μg dry powder inhaler; for Trough FEV1, LS Mean (SE) / Trough FVC, LS Mean (SE) / Trough IC, LS Mean (SE): change from baseline after 28 once-daily doses, TIO 18 μg dry powder inhaler, REV 175 μg nebulizer
# Procedure: A 28-day, randomized, double-blind, double-dummy, parallel-group study was conducted to compare once-daily revefenacin (175 μg of revefenacin in 3 mL of an isotonic, sterile aqueous solution containing sodium chloride, citric acid, sodium citrate, and water for injection at pH 5.0) delivered using a nebulizer (Trek S jet nebulizer (PARI, Midlothian, Va., USA) with once-daily tiotropium (18 μg/day) delivered using a dry powder inhaler (Spiriva HandiHaler, Boebringer Ingelheim Pharmaceuticals, Inc., Ridgefield, Conn., USA) on lung function in subjects with chronic obstructive pulmonary disease and a low peak inspiratory flow rate. Subjects with moderate to very severe COPD were allowed to use concurrent respiratory therapy with the exception of other inhaled anticholinergics. The primary endpoint of the study was the change from baseline in trough forced expiratory volume in one second (FEV1) after the 28th dose. Secondary endpoints included the change from baseline in peak FEV1, trough forced vital capacity (FVC), peak FVC and trough inspiratory capacity (IC) as well as the safety and tolerability of revefenacin 175 μg. Inclusion criteria were: age≥40 years; a smoking history≥10 pack years; a diagnosis of COPD (post-bronchodilator FEV1≤80% predicted and FEV/FVC≤70%); peak inspiratory flow rate (PIFR)<60 L/min as measured by IN-CHECK® DIAL device with resistance set to DISKUS® at screening.
# In this study, revefenacin (REV) (administered using a nebulizer) or tiotropium (TIC)) (administered using a dry powder inhaler) was dosed once-daily for 28 days, Peak inspiratory flow rates (best of three) were determined at screening, randomization and end of study using the IN-CHECK® DIAL device with the resistance set to a resistance equal or similar to the resistance associated with the DISKUS® device. FEV1, FVC and IC were measured at baseline and/or peak on day 1 and on day 29. Safety was assessed via the collection of adverse events.
# [1] = % predicted FEV1 <50% subpopulation, PIFR <60 L/min
# [2] = ITT population, all subjects PIFR <60 L/min
# [3] = ITT population, all subjects low PIFR, listed as revefenacin
# [4] = subjects with low PIFR (<60 L/min) and percent predicted FEV1 <50%, listed as revefenacin
Compound,"Trough FEV1, LS Difference (SE), REV vs TIO [1]","Trough FVC, LS Difference (SE), REV vs TIO [1]","Trough IC, LS Difference (SE), REV vs TIO [1]","Trough FEV1, LS Mean (SE) [1]","Trough FVC, LS Mean (SE) [1]","Trough IC, LS Mean (SE) [1]","Trough IC, revefenacin by nebulizer compared to tiotropium by dry powder inhaler (in words) (ITT population or subpopulation with low PIFR and percent predicted FEV1 <50%, listed as revefenacin)","Trough FEV1, LS Difference (SE), REV vs TIO (ITT population, PIFR <60 L/min)","Trough FVC, LS Difference (SE), REV vs TIO (ITT population, PIFR <60 L/min)","Trough IC, LS Difference (SE), REV vs TIO (ITT population, PIFR <60 L/min)","Trough FEV1, LS Mean (SE) [2]","Trough FVC, LS Mean (SE) [2]","Trough IC, LS Mean (SE) [2]","Trough FEV1, revefenacin by nebulizer compared to tiotropium by dry powder inhaler (in words) [3]","Trough FVC, revefenacin by nebulizer compared to tiotropium by dry powder inhaler (in words) [3]","Trough FEV1, revefenacin by nebulizer compared to tiotropium by dry powder inhaler (in words) [4]","Trough FVC, revefenacin by nebulizer compared to tiotropium by dry powder inhaler (in words) [4]"
"CN(CCN1CCC(OC(=O)Nc2ccccc2-c2ccccc2)CC1)C(=O)c1ccc(CN2CCC(C(N)=O)CC2)cc1 [REV, 1-(2-{4-[(4-carbamoylpiperidin-1-yl)methyl]-N-methylbenzamido}ethyl) piperidin-4-yl N-([1,1′-biphenyl]-2-yl)carbamate]",47.3 (21.76),99.9 (48.75),13.7 (45.43),74.8 (20.85),146.5 (46.69),89.7 (42.85),No differences in trough IC were noted; also recorded: statistically significant difference in trough IC was not observed,15.7 (22.35),69.6 (42.90),−12.7 (47.38),63.0 (20.17),125.4 (38.75),71.4 (42.33),did not meet statistical significance nor clinical relevance; also recorded: statistically significant difference in trough FEV1 was not observed,did not meet statistical significance nor clinical relevance; also recorded: statistically significant difference in trough FVC was not observed,statistically significant and clinically relevant greater improvements; also recorded: statistically significant difference in trough FEV1 was observed,statistically significant and clinically relevant greater improvements; also recorded: statistically significant difference in trough FVC was observed
"C[N+]1(C)[C@@H]2C[C@@H](OC(=O)C(O)(c3cccs3)c3cccs3)C[C@H]1[C@@H]1O[C@@H]12 [TIO, tiotropium, reference compound]",,,,27.5 (19.53),46.7 (43.56),76.0 (40.40),,,,,47.3 (19.06),55.8 (36.62),84.1 (40.02),,,,
